3 compounds from patent US20190218226A1, “PRODRUGS OF ANTICANCER AGENTS INDOTECAN AND INDIMITECAN” (Purdue Research Foundation, priority 2016, published 2019) can be followed below.

The test system of one data set is HCT-116. The data set can be described thus: NCI60 antiproliferative screen, colon HCT-116. The data set is classed as cell-based, human. The settings on record: Homo sapiens; HCT-116, 48 h, sulforhodamine B; read-out: Cytotoxicity (GI50) Colon HCT-116. As for the experimental part:
(§1) All of the indenoisoquinolines were tested for antiproliferative activity in the National Cancer Institute's 60 cell line screen (NCI60). The cells were incubated with the tested compounds at 100, 10, 1, 0.1, and 0.01 μM concentrations for 48 h before treatment with sulforhodamine B dye. Optical densities were recorded, and their ratios relative to that of the control were plotted as percentage growth against the log 10 of the tested compound concentrations. The concentration that corresponds to 50% growth inhibition (GI50) is calculated by interpolation between the points located above and below the 50% percentage growth. The mean-graph midpoint (MGM) is an estimated average of the GI50 values derived from the NCI collection of 60 human cancer cell lines, where during the MGM calculation, anticancer agents with GI50 values that are outside the testing range of 0.01-100 μM are arbitrarily assigned the values of 0.01 and 100 μM, respectively. […] Also, the GI50 values of many of the substances vs. individual human cancer cell lines are below the lowest concentration used (0.01 μM) in the standard NCI testing protocol. […] For example, the MGM cytotoxicity values of 9, 15-17, and 19 are all very close to each other, but the Top1 inhibitory activities range from +++(+) to 0.

In a further data set the test system is OVCAR-3. The data set can be described thus: NCI60 antiproliferative screen, ovarian OVCAR-3. The class given is cell-based, human. The settings on record: Homo sapiens; OVCAR-3, 48 h, sulforhodamine B; read-out: Cytotoxicity (GI50) Ovarian OVCAR-3. As for the experimental part: as §1
Data set [1] deals with all human cancer cell lines successfully tested (NCI60). The data set can be described thus: NCI60 mean graph midpoint for growth inhibition. The class given is cell-based. As to the method:
as §1

The next data set concerns the target T1, Human recombinant Top1 (Homo sapiens, UniProt P11387).
T1 construct: made in house
T1 sequence (P11387 1-765): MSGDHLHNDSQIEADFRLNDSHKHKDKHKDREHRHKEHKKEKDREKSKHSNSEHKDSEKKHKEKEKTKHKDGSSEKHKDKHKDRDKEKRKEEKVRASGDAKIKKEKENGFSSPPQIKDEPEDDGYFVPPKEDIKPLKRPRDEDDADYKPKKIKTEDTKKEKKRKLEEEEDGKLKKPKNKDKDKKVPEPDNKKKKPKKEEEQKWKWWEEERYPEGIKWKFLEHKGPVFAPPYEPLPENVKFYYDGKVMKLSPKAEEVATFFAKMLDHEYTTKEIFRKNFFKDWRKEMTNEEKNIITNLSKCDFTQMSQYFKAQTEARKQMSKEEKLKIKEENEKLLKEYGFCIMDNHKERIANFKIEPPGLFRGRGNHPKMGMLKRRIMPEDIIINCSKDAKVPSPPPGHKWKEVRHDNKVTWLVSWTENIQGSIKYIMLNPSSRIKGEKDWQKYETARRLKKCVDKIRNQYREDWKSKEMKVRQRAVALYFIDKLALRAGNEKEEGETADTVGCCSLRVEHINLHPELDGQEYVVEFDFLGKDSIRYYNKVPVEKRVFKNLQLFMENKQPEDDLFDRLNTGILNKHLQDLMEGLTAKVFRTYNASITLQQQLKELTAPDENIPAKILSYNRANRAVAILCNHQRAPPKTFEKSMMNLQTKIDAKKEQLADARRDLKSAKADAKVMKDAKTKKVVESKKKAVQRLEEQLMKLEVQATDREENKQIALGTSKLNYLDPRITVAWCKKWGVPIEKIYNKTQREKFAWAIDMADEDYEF
The data set can be described thus: Top1-mediated DNA cleavage assay. More on the design: key to Top1 inhibitory activity (level): 0, no detectable activity; +, weak activity; ++, similar activity to compound 4; +++, greater activity than 4; ++++, equipotent with 1; ++(+) would be between ++ and +++. The settings on record: for Top 1 Cleavage: graded relative to 1 μM camptothecin; for Top1 inhibitory activity (level): scored relative to compounds 1 and 4. The class given is biochemical. As to the method:
All of the new indenoisoquinoline derivatives were tested in Top1-mediated DNA cleavage assays. For this purpose, a ^32P 3′-end labeled 117-bp DNA fragment was incubated with Top1 at four concentrations of a tested compound. The DNA fragments were separated on 20% PAGE denaturing gels. The Top1 inhibitory activities were assigned on the basis of the visual inspection of the number and intensities of the gel bands corresponding to Top1-mediated DNA cleavage fragments and scored relative to the Top1 inhibitory activity of compounds 1 and 4. Results are expressed in semiquantitative fashion: 0, no detectable activity; +, weak activity; ++, similar activity to compound 4; +++, greater activity than 4; ++++, equipotent with 1. Ambiguous scores (e.g., between two values) are designated with parentheses (e.g., ++(+) would be between ++ and +++). […] After conversion of the hydroxyl to a dimethylcarbamate, the observed Top1 inhibitory activity increased from ++(+) for compound 8 to +++ for compound 10. Introduction of an acetyl group at the 0-2 position yielded compound 11, which was also a Top1 poison with activity at the ++ level. Subsequently, several hydrophobic substituents were attached to the 0-2 position.
Topoisomerase I-Mediated DNA Cleavage Reactions.
Human recombinant Top1 was purified from baculovirus as previously described (Morrell, A., et al., J. Med. Chem. 2007, 50, 2040-2048). DNA cleavage reactions were prepared as previously reported with the exception of the DNA substrate (Strumberg, D., et al., J. Med. Chem. 1999, 42, 446-457). Briefly, a 117-bp DNA oligonucleotide (Integrated DNA Technologies) encompassing the previously identified Top1 cleavage sites in the 161-bp fragment from pBluescript SK(−) phagemid DNA was employed. This 117-bp oligonucleotide contains a single 5′-cytosine overhang, which was 3′-end-labeled by fill-in reaction with [α-^32P]dGTP in React 2 buffer (50 mM Tris-HCl, pH 8.0, […], 50 mM NaCl) with 0.5 unit of DNA polymerase I (Klenow fragment, New England BioLabs). Unincorporated [^32P]dGTP was removed using mini Quick Spin DNA columns (Roche, Indianapolis, Ind.), and the eluate containing the 3′-end-labeled DNA substrate was collected. Approximately 2 nM radiolabeled DNA substrate was incubated with recombinant Top1 in 20 μL of reaction buffer [10 mM Tris-HCl (pH 7.5), 50 mM KCl, 5 mM MgCl2, 0.1 mM EDTA, and 15 μg/mL BSA] at 25° C. for 20 min in the presence of various concentrations of compounds. The reactions were terminated by adding SDS (0.5% final concentration) followed by the addition of two volumes of loading dye (80% formamide, 10 mM sodium hydroxide, 1 mM sodium EDTA, 0.1% xylene cyanol, and 0.1% bromophenol blue). Aliquots of each reaction mixture were subjected to 20% denaturing PAGE. Gels were dried and visualized by using a phosphoimager and ImageQuant software (Molecular Dynamics). For simplicity, cleavage sites were numbered as previously described in the 161-bp fragment.

The next data set deals with MCF-7. The data set can be described thus: NCI60 antiproliferative screen, breast MCF-7. The data set is classed as cell-based, human. The settings on record: Homo sapiens, MCF7; MCF-7, 48 h, sulforhodamine B; read-out: Cytotoxicity (GI50) breast MCF-7. As for the experimental part: as §1
In the next data set the test system is HOP-62. The data set is described as follows: NCI60 antiproliferative screen, lung HOP-62. The class given is cell-based, human. The settings on record: Homo sapiens; HOP-62, 48 h, sulforhodamine B; read-out: Cytotoxicity (GI50) lung HOP-62. As for the experimental part: as §1
The next data set concerns SF-539. The data set is described as follows: NCI60 antiproliferative screen, CNS SF-539. The settings on record: Homo sapiens; SF-539, 48 h, sulforhodamine B; read-out: Cytotoxicity (GI50) CNS SF-539. The data set is classed as cell-based, human. As for the experimental part:
as §1

In a further data set the test system is SN12C. The data set is described as follows: NCI60 antiproliferative screen, renal SN12C. The settings on record: Homo sapiens, 48 h, sulforhodamine B, read-out: Cytotoxicity (GI50) renal SN12C. The class given is cell-based, human. As to the method: as §1
In another data set the test system is DU-145. The data set can be described thus: NCI60 antiproliferative screen, prostate DU-145. The settings on record: Homo sapiens; DU-145, 48 h, sulforhodamine B; read-out: Cytotoxicity (GI50) prostate DU-145. The class given is cell-based, human. As to the method:
as §1

The subject of another data set is UACC-62. The data set is described as follows: NCI60 antiproliferative screen, melanoma UACC-62. The data set is classed as cell-based, human. The settings on record: Homo sapiens; UACC-62, 48 h, sulforhodamine B; read-out: Cytotoxicity (GI50) melanoma UACC-62. As for the experimental part:
as §1

Where [2] appears, read: all human cancer cell lines successfully tested, ± standard error, read-out: MGM (mean graph midpoint for growth inhibition).

Read-outs that look alike come from different tables or passages of the source.

For `COc1cc2c3c(n(CCCN4CCOCC4)c(=O)c2cc1OC(=O)c1cccnc1)-c1cc2c(cc1C3=O)OCO2` [Compound 19, 2-Methoxy-6-(3-morpholinopropyl)-5,12-dioxo-6,12-dihydro-5H-[1,3]dioxolo[4′,5′:5,6]indeno[1,2-c]isoquinolin-3-yl Nicotinate], the melting point was 274 to 276 °C (dec.). The GI50 in the data set with HCT-116 is below 10 nM. For the same compound, the GI50 in the data set on OVCAR-3 came to 15 nM. In [1] (setting [2]), the mean GI50 across NCI60 cell lines (MGM) is 35 nM. For the same compound, the “Top 1 Cleavage” value on Human recombinant Top1 is “+ (+, between 20 and 50% activities)”. Besides, in the data set on MCF-7, the GI50 was below 10 nM. Besides, the GI50 in the data set with HOP-62 was below 10 nM. Also, the concentration for 50% growth inhibition (GI50) with SF-539 is below 10 nM. The GI50 in the data set with SN12C was below 10 nM. Further, the GI50 in the data set with DU-145 was below 10 nM. Besides, the GI50 in the data set on UACC-62 was below 10 nM.

For the compound `COc1cc2c(=O)n(CCCN3CCOCC3)c3c(c2cc1OC(=O)c1cccnc1)C(=O)c1cc2c(cc1-3)OCO2` [Compound 14, 3-Methoxy-6-(3-morpholinopropyl)-5,12-dioxo-6,12-dihydro-5H-[1,3]dioxolo[4′,5′:5,6]indeno[1,2-c]isoquinolin-2-yl Nicotinate], the melting point is 277 to 279 °C (dec.). Besides, in the data set on HCT-116, the GI50 was determined as 30 nM. The GI50 in the data set on OVCAR-3 worked out at 295 nM. Further, the mean GI50 across NCI60 cell lines (MGM) in [1] (Homo sapiens, NCI60, read-out: MGM value) came out at 158 ± 65 nM. Further, the mean GI50 across NCI60 cell lines (MGM) in [1] (setting [2]) came out at 158 ± 65 nM. Besides, at Human recombinant Top1, the “Top1 inhibitory activity (in words)” value was “slight improvement in Top1 inhibitory activity”; the “Top 1 Cleavage” value is “+++ (+++, between 75 and 95% activity)”; the “Top1 inhibitory activity (level)” value is on record as “+++”. In addition, the GI50 with MCF-7 was below 10 nM. Further, in the data set on HOP-62, the GI50 came out at 12 nM. Also, the GI50 in the data set on SF-539 was below 10 nM. Besides, in the data set on SN12C, the GI50 was below 10 nM. In addition, in the data set with DU-145, the GI50 came out at 13 nM. For the same compound, the GI50 in the data set with UACC-62 was 22 nM.

For `COc1cc2c(=O)n(CCCN3CCOCC3)c3c(c2cc1OC(=O)N(C)C)C(=O)c1cc2c(cc1-3)OCO2` [Compound 10, 3-Methoxy-6-(3-morpholinopropyl)-5,12-dioxo-6,12-dihydro-5H-[1,3]dioxolo[4′,5′:5,6]indeno[1,2-c]isoquinolin-2-yl Dimethylcarbamate], the melting point is 268 to 270 °C (dec.). The GI50 in the data set with HCT-116 was found to be 6070 nM. In addition, the GI50 in the data set on OVCAR-3 is 12000 nM. Moreover, in data set [1] (NCI60), the “GI50's against various cell lines (range in words)” value is listed as “micromolar range”. In addition, the mean GI50 across NCI60 cell lines (MGM) in data set [1] (setting [2]) was 3460 ± 999 nM. Moreover, at Human recombinant Top1, the “Top1 inhibitory activity (in words)” value is recorded as “slight improvement in Top1 inhibitory activity”; the “Top 1 Cleavage” value was “+++ (+++, between 75 and 95% activity)”; the “Top1 inhibitory activity (level)” value is “+++”. Besides, the GI50 in the data set on MCF-7 was found to be 22 nM. The GI50 in the data set with HOP-62 came to 1700 nM. For the same compound, in the data set with SF-539, the GI50 turned out to be 1860 nM. Moreover, the GI50 in the data set on SN12C was 2400 nM. The GI50 in the data set on DU-145 is 1550 nM. Moreover, the GI50 in the data set on UACC-62 worked out at 4470 nM.
